What was measured:
Format in all cases: in vivo
[1] = test system: goosegrass (Eleusine indica); assay: (10) Herbicidal effect test, pot, spray at 6.5 to 7.8 leaf stage; conditions: 13th day after spraying
From the text: (§1) [formula] • X: growth inhibition rate when treated with α (g/ha) of compound A, • Y: growth inhibition rate when treated with β (g/ha) of compound B, • E: growth inhibition rate expected when treated with α (g/ha) of compound A and β (g/ha) of compound B (expected value).
Upland soil was put in a 1/1,000,000 hectare pot, and seeds of goosegrass (Eleusine indica) were sown. When the goosegrass reached 6.5 to 7.8 leaf stage, a water-based suspension containing tiafenacil as the active ingredient, prepared by a conventional method for preparing a water-based suspension, and an emulsifiable concentrate containing S-metolachlor as the active ingredient (tradename: Dual Gold, manufactured by Syngenta), a wettable powder containing metribuzin as the active ingredient (tradename: SENCOR wettable powder, manufactured by Bayer Crop Science) or water dispersible granules containing pyroxasulfone as the active ingredient (tradename: Sakura, manufactured by Bayer Crop Science) were diluted with water (in an amount corresponding to 200 liter per hectare) containing 0.5 vol % of an agricultural spreader (tradename: Destiny HC, manufactured by Winfield Solutions, LLC.) and sprayed by a small spray gun (model: W-101-132G, manufactured by ANEST IWATA Corporation). On the 13th day after spraying, the state of growth of the goosegrass was visually observed, and the growth inhibition rate (%) was obtained in accordance with the evaluation standards described in the above (1) herbicidal effect test, and the results are shown in Table 10. Further, the expected value of the growth inhibition rate (%) was calculated in accordance with the Colby's formula described in the above (1) herbicidal effect test, and the results are also shown in Table 10.

[2] = test system: forage corn (cultivar: SNOW DENT OTOHA); assay: (17) Plant growth promotion effect test (corn), Italian ryegrass sown; conditions: 20th day after the sowing, above-ground part
From the text: Upland soil was put in a 1/1,000,000 hectare pot, and seeds of Italian ryegrass (Lolium multiflorum) were sown. When the Italian ryegrass reached 2.5 to 3.0 leaf stage, a water-based suspension containing tiafenacil as the active ingredient, prepared by a conventional method for preparing a water-based suspension, and an emulsifiable concentrate containing S-metolachlor as the active ingredient (tradename: Dual Gold, manufactured by Syngenta) or a wettable powder containing metribuzin as the active ingredient (tradename: SENCOR wettable powder, manufactured by Bayer Crop Science) were diluted with water (in an amount corresponding to 200 liter per hectare) containing 0.5 vol % of an agricultural spreader (tradename: Destiny HC, manufactured by Winfield Solutions, LLC.) and sprayed by a small spray gun (model: W-101-132G, manufactured by ANEST IWATA Corporation). Seeds of forage corn (cultivar: SNOW DENT OTOHA, manufactured by SNOW BRAND SEED Co., Ltd.) were sown in the pot after spraying. On the 20th day after the sowing, the above-ground part of the forage corn was reaped, and its weight was measured to obtain the raw weight.

[3] = test system: waterhemp (Amaranthus tuberculatus); assay: (13) Herbicidal effect test, pot, spray at 5.0 to 8.0 leaf stage; conditions: 4th day after spraying
From the text: as §1
Upland soil was put in a 1/1,000,000 hectare pot, and seeds of waterhemp (Amaranthus tuberculatus) were sown. When the waterhemp reached 5.0 to 8.0 leaf stage, a water-based suspension containing tiafenacil as the active ingredient, prepared by a conventional method for preparing a water-based suspension, and a wettable powder containing tri-allate as the active ingredient, prepared by a conventional method for preparing a wettable powder, an emulsifiable concentrate containing pethoxamid as the active ingredient (tradename: Successor 600, manufactured by Stähler Suisse SA) or an emulsifiable concentrate containing dimethenamid-P as the active ingredient (tradename: Fieldstar P emulsifiable concentrate, manufactured by BASF) were diluted with water (in an amount corresponding to 200 liter per hectare) containing 0.5 vol % of an agricultural spreader (tradename: Destiny HC, manufactured by Winfield Solutions, LLC.) and sprayed by a small spray gun (model: W-101-132G, manufactured by ANEST IWATA Corporation). On the 4th day after spraying, the state of growth of the waterhemp was visually observed, and the growth inhibition rate (%) was obtained in accordance with the evaluation standards described in the above (1) herbicidal effect test, and the results are shown in Table 13. Further, the expected value of the growth inhibition rate (%) was calculated in accordance with the Colby's formula described in the above (1) herbicidal effect test, and the results are also shown in Table 13.

[4] = test system: Italian ryegrass (Lolium multiflorum); assay: (5) Herbicidal effect test, pot, spray at 3.0 to 3.3 leaf stage; conditions: 6th day after spraying
From the text: as §1
Upland soil was put in a 1/1,000,000 hectare pot, and seeds of Italian ryegrass (Lolium multiflorum) were sown. When the Italian ryegrass reached 3.0 to 3.3 leaf stage, a water-based suspension containing tiafenacil as the active ingredient, prepared by a conventional method for preparing a water-based suspension, and a wettable powder containing metribuzin as the active ingredient (tradename: SENCOR wettable powder, manufactured by Bayer Crop Science), water dispersible granules containing pyroxasulfone as the active ingredient (tradename: Sakura, manufactured by Bayer Crop Science) or a wettable powder containing tri-allate as the active ingredient, prepared by a conventional method for preparing a wettable powder, were diluted with water (in an amount corresponding to 200 liter per hectare) containing 0.5 vol % of an agricultural spreader (tradename: Destiny HC, manufactured by Winfield Solutions, LLC.) and sprayed by a small spray gun (model: W-101-132G, manufactured by ANEST IWATA Corporation). On the 6th day after spraying, the state of growth of the Italian ryegrass was visually observed, and the growth inhibition rate (%) was obtained in accordance with the evaluation standards described in the above (1) herbicidal effect test, and the results are shown in Table 5. Further, the expected value of the growth inhibition rate (%) was calculated in accordance with the Colby's formula described in the above (1) herbicidal effect test, and the results are also shown in Table 5.

## CCc1cccc(C)c1N(C(=O)CCl)[C@@H](C)COC [S-metolachlor]
[1]; Dose 7.5 g/ha
  Growth inhibition rate (%) Measured value: 7%
[1]; Dose 375 g/ha
  Growth inhibition rate (%) Measured value: 7%
[1]; Dose 750 g/ha
  Growth inhibition rate (%) Measured value: 7%
[2]; Dose 750 g/ha
  Raw weight (g) of forage corn: 5.1 g

## COC[C@H](C)N(C(=O)CCl)c1c(C)csc1C [dimethenamid-P]
[3]; Dose 60 g/ha
  Growth inhibition rate (%) Measured value: 0%
[3]; Dose 375 g/ha
  Growth inhibition rate (%) Measured value: 0%
[3]; Dose 750 g/ha
  Growth inhibition rate (%) Measured value: 0%

## CSc1nnc(C(C)(C)C)c(=O)n1N [metribuzin]
[4]; Lolium multiflorum, Dose 137.5 g/ha, read-out: Growth inhibition rate (%) Measured value
  inhibition at 137.5 g/ha: 20%
[4]; Lolium multiflorum, Dose 275 g/ha, read-out: Growth inhibition rate (%) Measured value
  inhibition at 275 g/ha: 30%
[4]; Lolium multiflorum, Dose 550 g/ha, read-out: Growth inhibition rate (%) Measured value
  inhibition at 550 g/ha: 30%
[1]; Eleusine indica, Dose 9.38 g/ha, read-out: Growth inhibition rate (%) Measured value
  inhibition at 9.38 g/ha: 7%
[1]; Eleusine indica, Dose 550 g/ha, read-out: Growth inhibition rate (%) Measured value
  inhibition at 550 g/ha: 68%
[1]; Eleusine indica, Dose 1100 g/ha, read-out: Growth inhibition rate (%) Measured value
  inhibition at 1100 g/ha: 72%
[2]; Dose 18.75 g/ha
  Raw weight (g) of forage corn: 6.2 g

## CCOCCN(C(=O)CCl)C(=C(C)C)c1ccccc1 [pethoxamid]
[3]; Dose 93.8 g/ha
  Growth inhibition rate (%) Measured value: 0%
[3]; Dose 375 g/ha
  Growth inhibition rate (%) Measured value: 0%
[3]; Dose 750 g/ha
  Growth inhibition rate (%) Measured value: 0%

## Cn1nc(C(F)(F)F)c(CS(=O)(=O)C2=NOC(C)(C)C2)c1OC(F)F [pyroxasulfone]
[4]; Lolium multiflorum, Dose 7.5 g/ha, read-out: Growth inhibition rate (%) Measured value
  inhibition at 7.5 g/ha: 0%
[4]; Lolium multiflorum, Dose 15 g/ha, read-out: Growth inhibition rate (%) Measured value
  inhibition at 15 g/ha: 3%
[4]; Lolium multiflorum, Dose 62.5 g/ha, read-out: Growth inhibition rate (%) Measured value
  inhibition at 62.5 g/ha: 8%
[4]; Lolium multiflorum, Dose 125 g/ha, read-out: Growth inhibition rate (%) Measured value
  inhibition at 125 g/ha: 17%
[4]; Lolium multiflorum, Dose 250 g/ha, read-out: Growth inhibition rate (%) Measured value
  inhibition at 250 g/ha: 23%
[1]; Eleusine indica, Dose 7.5 g/ha, read-out: Growth inhibition rate (%) Measured value
  inhibition at 7.5 g/ha: 0%
[1]; Eleusine indica, Dose 250 g/ha, read-out: Growth inhibition rate (%) Measured value
  inhibition at 250 g/ha: 2%
[1]; Eleusine indica, Dose 500 g/ha, read-out: Growth inhibition rate (%) Measured value
  inhibition at 500 g/ha: 2%

## COC(=O)CCNC(=O)C(C)Sc1cc(-n2c(=O)cc(C(F)(F)F)n(C)c2=O)c(F)cc1Cl (centres unmarked) [tiafenacil]
[4]; Dose 3.13 g/ha
  Growth inhibition rate (%) Measured value: 17%
[4]; Dose 6.25 g/ha
  Growth inhibition rate (%) Measured value: 33%
[4]; Dose 12.5 g/ha
  Growth inhibition rate (%) Measured value: 60%
[1]; Dose 6.25 g/ha
  Growth inhibition rate (%) Measured value: 30%
[3]; Dose 6.25 g/ha
  Growth inhibition rate (%) Measured value: 73%
[2]; Dose 12.5 g/ha
  Raw weight (g) of forage corn: 8.5 g

## CC(C)N(C(=O)SCC(Cl)=C(Cl)Cl)C(C)C [tri-allate]
[4]; Lolium multiflorum, Dose 75 g/ha, read-out: Growth inhibition rate (%) Measured value
  inhibition at 75 g/ha: 0%
[4]; Lolium multiflorum, Dose 150 g/ha, read-out: Growth inhibition rate (%) Measured value
  inhibition at 150 g/ha: 0%
[4]; Lolium multiflorum, Dose 625 g/ha, read-out: Growth inhibition rate (%) Measured value
  inhibition at 625 g/ha: 2%
[4]; Lolium multiflorum, Dose 1250 g/ha, read-out: Growth inhibition rate (%) Measured value
  inhibition at 1250 g/ha: 5%
[3]; Amaranthus tuberculatus, Dose 75 g/ha, read-out: Growth inhibition rate (%) Measured value
  inhibition at 75 g/ha: 0%
[3]; Amaranthus tuberculatus, Dose 625 g/ha, read-out: Growth inhibition rate (%) Measured value
  inhibition at 625 g/ha: 0%
[3]; Amaranthus tuberculatus, Dose 1250 g/ha, read-out: Growth inhibition rate (%) Measured value
  inhibition at 1250 g/ha: 0%

Reference: patent publication US20250380696A1, “METHOD FOR CONTROLLING UNDESIRED PLANTS AND PROMOTING GROWTH OF USEFUL PLANTS” (ISHIHARA SANGYO KAISHA, LTD., priority 2022, published 2025)
